Measurements reported in US20230129364A1, “PYRROLIDINE DERIVATIVE, AND PHARMACEUTICAL COMPOSITION FOR PREVENTING OR TREATING BETA-AMYLOID OR TAU PROTEIN-ASSOCIATED DISEASES CONTAINING SAME” (YONSEI UNIVERSITY, UNIVERSITY - INDUSTRY FOUNDATION (UIF), priority 2019, published 2023).

Experiments:
Type in all cases: biochemical
[1] = target: T1, aggregated beta-amyloid; human Aβ 1-42 (UniProtKB-P05067, a.a. 672-713) (Homo sapiens, UniProt P05067); assay: Beta-amyloid aggregate degradation test (thioflavin T assay); details: pre-aggregated Aβ, further 3 days at 37° C., ThT fluorescence vs control = 100%
T1 construct: UniProtKB-P05067, a.a; 672-713
T1 sequence (P05067 672-713): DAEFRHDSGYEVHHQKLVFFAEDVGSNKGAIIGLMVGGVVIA
Experimental: Aβ (beta-amyloid; human A3 1-42 monomer (UniProtKB-P05067, a.a. 672-713)) was dissolved at a concentration of 10 mM in dimethyl sulfoxide (DMSO), and the resulting solution was diluted to 250 μM using distilled water, and then incubated at 37° C. for 3 days to induce aggregation. The aggregated beta-amyloid was added with each test compound in an amount of 50 or 500 μM such that the final concentration reached 25 μM, and was further cultured at 37° C. for 3 days to induce reaction. The aggregate degradation effect of each test compound was measured by thioflavin T (ThT) assay (see Example 2). Specifically, 25 μL of the reaction solution was charged in each well of a 96-well plate for fluorescence analysis and 75 μL of the prepared thioflavin-T solution was charged in each well. The reaction was allowed to proceed at room temperature in a dark laboratory for 5 minutes and then fluorescence values were measured at an excitation wavelength of 450 nm and an emission wavelength of 485 nm using a multi-mode microplate reader. The ratio of the fluorescence value measured in the group obtained by treating with each test compound to 100% of the fluorescence value of the group (control group) obtained by treating only with beta-amyloids and inducing aggregation for 3 days is set forth in Table 4 below: […]

[2] = target: T2, Tau protein (wild-type K18) (Homo sapiens, UniProt P10636); assay: Tau protein aggregation inhibition test (thioflavin T assay); details: heparin/DTT-induced aggregation, 37° C. 5 days, ThT fluorescence vs tau-only control = 100%
T2 construct: Tau protein (wild-type K18)
T2 sequence (P10636 561-685 limits assumed): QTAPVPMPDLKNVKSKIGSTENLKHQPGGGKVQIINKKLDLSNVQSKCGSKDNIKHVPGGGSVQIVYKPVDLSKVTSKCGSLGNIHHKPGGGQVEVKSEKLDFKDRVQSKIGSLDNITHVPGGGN
Experimental: (§1) Tau protein (wild-type K18) was dissolved in phosphate-buffered saline (PBS, pH 7.4) at a concentration of 1 mg/mL to prepare a tau protein solution. In order to induce aggregation of tau proteins, 0.1 mg/mL of heparin and 100 μM dithiothreitol (DTT) were added to 1 mg/mL of the tau protein solution, followed by incubation at 37° C. for 5 days. At this time, the result was mixed with each test compound (50, 500 μM) such that the final concentration reached 0.5 mg/mL, followed by further incubation.
The inhibitory effect of each compound against tau aggregation was measured based on the intensity of fluorescence by thioflavin T (ThT) assay (see Example 2). More specifically, 25 μL of the reaction solution was charged in each well of a 96-well plate for fluorescence analysis, and 75 μL of the prepared thioflavin-T solution was then charged in each well. The reaction was allowed to proceed at room temperature in a dark laboratory for 5 minutes, and then fluorescence values were measured at an excitation wavelength of 450 nm and an emission wavelength of 485 nm using a multi-mode microplate reader.
The ratio of the fluorescence value measured in the group obtained by treating with each test compound to 100% of the fluorescence value of the group (control group) obtained by treating only with tau proteins and inducing aggregation for 5 days is set forth in Table 5 below: […]

[3] = target: T3, aggregated tau protein (wild-type K18) (Homo sapiens, UniProt P10636); assay: Tau protein aggregate degradation test (thioflavin T assay); details: pre-aggregated tau, further 5 days at 37° C., ThT fluorescence vs control = 100%
T3 construct: Tau protein (wild-type K18)
T3 sequence (P10636 561-685 limits assumed): as above
Experimental: as §1, with “solution.” for “solution. In order to induce aggregation of tau proteins,”, “days to induce tau protein aggregation. The aggregated tau protein” for “days. At this time, the result”, “in an amount of 50 or” for “(50,”, “μM” for “μM)”, “incubation at 37° C. for 5 days to induce reaction.” for “incubation.”
The degradation effect of each compound on the tau aggregates was measured by thioflavin T (ThT) assay (see Example 2). More specifically, 25 μL of the reaction solution was charged in each well of a 96-well plate for fluorescence analysis and 75 μL of the prepared thioflavin-T solution was charged in each well. The reaction was allowed to proceed at room temperature in a dark laboratory for 5 minutes and then fluorescence values were measured at an excitation wavelength of 450 nm and an emission wavelength of 485 nm using a multi-mode microplate reader.
The ratio of the fluorescence value measured in the group obtained by treating with each test compound to 100% of the fluorescence value of the group (control group) obtained by treating only with tau proteins and inducing aggregation for 5 days is set forth in Table 6 below: […]

Beta-amyloid aggregate degradation activity (% of control) ([1]; 50 uM test compound)	Beta-amyloid aggregate degradation activity (% of control) ([1]; 500 uM test compound)	Tau aggregation remaining (ThT fluorescence, % of tau-only control) ([2]; 500 uM test compound)	ThT fluorescence remaining (% of control) ([3]; 50 uM test compound)	ThT fluorescence remaining (% of control) ([3]; 500 uM test compound)	Tau aggregation remaining (ThT fluorescence, % of tau-only control) ([2]; 50 uM test compound)	Structure (SMILES)
–	92.41 % of control	56.3 % of control	40.39 % of control	33.92 % of control	81.42 % of control	CCN1C(=O)/C(=C/c2c[nH]c3ncccc23)NC1=S [DN204816, (Z)-5-((1H-pyrrolo[2,3-b]pyridin-3-yl)methylene)-3-ethyl-2-thioxoimidazolidin-4-one]
–	78.39 % of control	66.18 % of control	49.84 % of control	43.06 % of control	87.3 % of control	CCN1C(=O)/C(=C/c2c[nH]c3cccnc23)NC1=S [DN204817, (Z)-5-((1H-pyrrolo[3,2-b]pyridin-3-yl)methylene)-3-ethyl-2-thioxoimidazolidin-4-one]
93.80 % of control	44.61 % of control	25.883 % of control	49.41 % of control	30.65 % of control	40.038 % of control	O=C1NC(=S)S/C1=C\c1c[nH]c2ncccc12 [DN205355, (Z)-5-((1H-pyrrolo[2,3-b]pyridin-3-yl)methylene)-2-thioxothiazolidin-4-one]
51.31 % of control	35.73 % of control	33.02 % of control	27.50 % of control	10.84 % of control	69.83 % of control	CCN1C(=O)/C(=C/c2c[nH]c3ccncc23)SC1=S [DN205780, (Z)-5-((1H-pyrrolo[3,2-c]pyridin-3-yl)methylene)-3-ethyl-2-thioxothiazolidin-4-one]
85.76 % of control	55.35 % of control	52.99 % of control	28.74 % of control	23.79 % of control	74.46 % of control	CCN1C(=O)/C(=C/c2c[nH]c3cccnc23)SC1=S [DN205781, (Z)-5-((1H-pyrrolo[3,2-b]pyridin-3-yl)methylene)-3-ethyl-2-thioxothiazolidin-4-one]

Continued, molecule first:

Structure (SMILES)	Beta-amyloid aggregate degradation activity (% of control) ([1]; 50 uM test compound)	Beta-amyloid aggregate degradation activity (% of control) ([1]; 500 uM test compound)	Tau aggregation remaining (ThT fluorescence, % of tau-only control) ([2]; 500 uM test compound)	ThT fluorescence remaining (% of control) ([3]; 50 uM test compound)	ThT fluorescence remaining (% of control) ([3]; 500 uM test compound)	Tau aggregation remaining (ThT fluorescence, % of tau-only control) ([2]; 50 uM test compound)
CCN1C(=O)/C(=C/c2ccoc2)NC1=S [DN204814, (Z)-3-ethyl-5-(furan-3-ylmethylene)-2-thioxoimidazolidin-4-one]	58.02 % of control	−40.60 % of control	28.47 % of control	30.07 % of control	−22.72 % of control	–
O=C1NC(=S)S/C1=C\c1csc2ccccc12 [DN204818, (Z)-5-(benzo[b]thiophen-3-ylmethylene)-2-thioxothiazolidin-4-one]	95.08 % of control	35.83 % of control	1.71 % of control	14.94 % of control	5.16 % of control	20.35 % of control
CCN1C(=O)C(Cc2ccc3occc3c2)NC1=S (centres unmarked) [DN205353, 5-(benzofnran-5-ylmethyl)-3-ethyl-2-thioxoimidazolidin-4-one]	–	90.19 % of control	66.948 % of control	66.25 % of control	80.59 % of control	61.551 % of control
